Assay results reported in ChEMBL document CHEMBL1201862, “PubChem BioAssay data set” (2004).
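How tested: cells in 96-well plates exposed to compound for 48 hours at five concentrations. Abbreviation: GI50, concentration required for 50% inhibition of growth.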 Activity calls are given as the source filed them. No stated cut-off is given here; in the data, active = GI50 up to about 1.1 µM and inactive = higher.

How the values were obtained:
Assay in all cases: NCI tumour cell line growth inhibition, 48 h
HOP-62 = tested on: HOP-62
NCI-H460 = tested on: NCI-H460
HOP-92 = tested on: HOP-92
K562 = tested on: K562
MOLT-4 = tested on: MOLT-4
A549 = tested on: A549
MDA-N = tested on: MDA-N
NCI-H23 = tested on: NCI-H23
Malme-3M = tested on: Malme-3M
SNB-19 = tested on: SNB-19
UACC-257 = tested on: UACC-257
NCI-H522 = tested on: NCI-H522
MCF7 = tested on: MCF7
SF-539 = tested on: SF-539
HL-60 = tested on: HL-60
OVCAR-5 = tested on: OVCAR-5
HCT-15 = tested on: HCT-15
MDA-MB-435 = tested on: MDA-MB-435
A498 = tested on: A498
SK-MEL-28 = tested on: SK-MEL-28

Compound | GI50 (HOP-62) | GI50 (NCI-H460) | GI50 (HOP-92) | GI50 (K562) | GI50 (MOLT-4) | GI50 (A549) | GI50 (MDA-N) | GI50 (NCI-H23) | GI50 (Malme-3M) | GI50 (SNB-19) | GI50 (UACC-257) | GI50 (NCI-H522) | GI50 (MCF7) | GI50 (SF-539) | GI50 (HL-60) | GI50 (OVCAR-5) | GI50 (HCT-15) | GI50 (MDA-MB-435) | GI50 (A498) | GI50 (SK-MEL-28)
CC(C)(Cl)C(Br)CC/C(=C/CBr)CBr.CC(C)(Cl)C(Br)CC/C(=C\CBr)CBr (stereo not given) | 5.93 µM (inactive) | 3.61 µM (inactive) | 2.03 µM (inactive) | 1.71 µM (inactive) | 1.14 µM (inactive) | 12.5 µM (inactive) | 2.62 µM (inactive) | 2.83 µM (inactive) | 1.78 µM (inactive) | 4.12 µM (inactive) | 4.37 µM (inactive) | 1.68 µM (inactive) | 2.84 µM (inactive) | 2.47 µM (inactive) | 0.757 µM (active) | 13.2 µM (inactive) | 1950 nM | 1.87 µM (inactive) | 8.63 µM (inactive) | 3.2 µM (inactive)
CC(=O)c1csc2c1C(=O)c1scc(C(C)=O)c1C2=O | 1.8 µM (inactive) | 1.03 µM (active) | 2 µM (inactive) | 0.74 µM (active) | 0.347 µM (active) | 1.97 µM (inactive) | 0.176 µM (active) | 1.37 µM (inactive) | 1.49 µM (inactive) | 1.8 µM (inactive) | 0.942 µM (active) | 0.52 µM (active) | 1.38 µM (inactive) | 1.82 µM (inactive) | 0.112 µM (active) | 1.98 µM (inactive) | 1620 nM | 0.188 µM (active) | 1.54 µM (inactive) | 1.97 µM (inactive)
CCCCCCCCC/C=C1\CCC(CN2CCOCC2)C1=O (stereo not given) | 13.6 µM (inactive) | 7.26 µM (inactive) | 3.38 µM (inactive) | 2.45 µM (inactive) | 1.57 µM (inactive) | 15 µM (inactive) | 2.64 µM (inactive) | 3.9 µM (inactive) | 7.08 µM (inactive) | 9.04 µM (inactive) | 3.99 µM (inactive) | 2.64 µM (inactive) | 1.03 µM (active) | 1.86 µM (inactive) | 1.67 µM (inactive) | 16.9 µM (inactive) | 2470 nM | 2.36 µM (inactive) | 12 µM (inactive) | 3.05 µM (inactive)
COC(=O)[C@@H]1C=C[C@H](OC2OC(COC(C)=O)C(OC(C)=O)C(OC(C)=O)C2OC(C)=O)n2c(=O)n(-c3ccccc3)c(=O)n21 (stereo not given in full) | 14.5 µM (inactive) | 14 µM (inactive) | 1.77 µM (inactive) | 1.61 µM (inactive) | 2.13 µM (inactive) | 14.7 µM (inactive) | 2.57 µM (inactive) | 5.3 µM (inactive) | 2.01 µM (inactive) | 11.4 µM (inactive) | 2.13 µM (inactive) | 0.507 µM (active) | 2.35 µM (inactive) | 2.74 µM (inactive) | 1.1 µM (active) | 6.27 µM (inactive) | 1840 nM | 5.14 µM (inactive) | 7.46 µM (inactive) | 2.33 µM (inactive)
CCON=C1C(C)(C)C(C)(C)C(C)(C)C1(C)C | > 100 µM (inactive) | > 100 µM (inactive) | > 100 µM (inactive) | > 100 µM (inactive) | > 100 µM (inactive) | > 100 µM (inactive) | > 100 µM (inactive) | > 100 µM (inactive) | > 100 µM (inactive) | > 100 µM (inactive) | > 100 µM (inactive) | > 100 µM (inactive) | > 100 µM (inactive) | > 100 µM (inactive) | > 100 µM (inactive) | > 100 µM (inactive) | > 100000 nM | > 100 µM (inactive) | > 100 µM (inactive) | > 100 µM (inactive)
N/C(=N\N/C=C1\C=Nc2cc(C(F)(F)F)ccc2C1=O)NO | > 10 µM (inactive) | > 10 µM (inactive) | > 10 µM (inactive) | 7.67 µM (inactive) | > 10 µM (inactive) | > 10 µM (inactive) | > 10 µM (inactive) | > 10 µM (inactive) | > 10 µM (inactive) | > 10 µM (inactive) | > 10 µM (inactive) | > 10 µM (inactive) | > 10 µM (inactive) | > 10 µM (inactive) | > 10 µM (inactive) | > 10 µM (inactive) | > 10000 nM | > 10 µM (inactive) | > 10 µM (inactive) | > 10 µM (inactive)
